Assay results published in PMC9504587, “Cytotoxic Drimane-Type Sesquiterpenes from Co-Culture of the Marine-Derived Fungi Aspergillus carneus KMM 4638 and Beauveria felina (=Isaria felina) KMM 4639” (Marine Drugs, 2022).
≈ marks a conversion by molar mass, not a printed value. Like-named read-outs stand apart in the source and are kept apart here.

Assays:
[1] = tested on: gastric cancer MKN-45 cells; parameters: method as in doi:10.25135/rnp.294.2109.2194; conditions: cited from earlier work
rat glioblastoma C6 = test: MTT cytotoxicity assay, C6 cells; assay type: cell-based; conditions: 24 h incubation, mean ± SEM
Description: (§1) PC-3, MCF-7, C6, and H9c2 cells were cultured in DMEM medium (Biolot, St. Petersburg, Russia) containing 10% fetal bovine serum (Biolot, St. Petersburg, Russia) and 1% penicillin/streptomycin (Biolot, St. Petersburg, Russia) at 37 °C in a humidified atmosphere with 5% (v/v) CO2. The Raji cells were cultured in RPMI-1640 medium (Biolot, St. Petersburg, Russia) containing 10% fetal bovine serum (Biolot, St. Petersburg, Russia) and 1% penicillin/streptomycin (Biolot, St. Petersburg, Russia) under the same conditions.
(§2) Initially, cells were incubated in culture flasks until subconfluent (~80%). For testing, the cells were seeded at concentrations of 5 × 10^3 cells/well (PC-3, MCF-7, Raji, and C6 cells) or 3 × 10^3 cells/well (H9c2 cells), and experiments were started after 24 h.
(§3) The in vitro cytotoxicity of individual substances was determined by the MTT method (3-(4,5-dimethylthiazol-2-yl)-2,5-diphenyltetrazolium bromide), according to the manufacturer’s instructions (Sigma-Aldrich, St. Louis, MO, USA).
(§4) Investigated compounds were dissolved in DMSO at a concentration of 10 mM.
(§5) The cells were treated with the investigated compounds for 24 h or 48 h, and MTT reagent was added to each well of the plate. The vehicle with DMSO at a concentration of 1% was used as a control. The absorbance of formed formazan was measured at λ = 570 nm using a Multiskan FC microplate photometer (Thermo Scientific, Waltham, MA, USA) and expressed in optical units (o.u.). The results are presented as % of viable cells relative to vehicle, and 50% inhibition concentration of cell viability (IC50) was calculated.

[2] = tested on: human prostate cancer PC-3; test: MTT cytotoxicity assay, PC-3 cells; assay type: cell-based; conditions: 24 h incubation, mean ± SEM
Description: as §1, §2, §3, §4, §5

[3] = tested on: human hepatocarcinoma HepG2; parameters: method as in doi:10.25135/rnp.294.2109.2194; conditions: cited from earlier work
human lymphoma Raji = test: MTT cytotoxicity assay, Raji cells; assay type: cell-based; conditions: 24 h incubation, mean ± SEM
Description: as §1, §2, §3, §4, §5

[4] = tested on: human breast cancer MCF-7; test: MTT cytotoxicity assay, MCF-7 cells; assay type: cell-based
Description: as §1, §2, §3, §4, §5

[5] = tested on: normal rat cardiomyocyte H9c2 cell line; test: MTT cytotoxicity assay, H9c2 cells; assay type: cell-based; conditions: 24 h incubation, mean ± SEM
Description: as §1, §2, §3, §4, §5

MCF-7 cells [6] = test: Total caspase activity by flow cytometry (Muse multicaspase kit); assay type: cell-based, human; conditions: 10 µM, 48 h; control 4.7%
Description: The influence of the compounds on the percentage of live MCF-7 cells (caspase−/7-AAD−), live MCF-7 cells with caspase activity (caspase+/7-AAD−), dead MCF-7 cells with caspase activity […] MCF-7 cells (caspase−/7-AAD+) was measured by a Muse® multicaspase kit (Luminex, Austin, TX, USA). The kit utilizes a VAD-peptide derivatized with a fluorescent group called fluorescent-labeled inhibitor of caspases (FLICA). The peptide binds to activated caspases, resulting in a fluorescent signal proportional to the number of active caspases in the cell. Fluorescent dye 7-AAD was used as a dead cell marker in this assay.
After incubation, culture media were collected, and cells were washed twice with cold PBS and incubated in trypsin-EDTA solution for 1 min. The cell suspension was washed twice by centrifugation at 250× g for 4 min with cold PBS and then used for caspase activity detection by a Muse® multicaspase kit (caspases 1, 3, 4, 5, 6, 7, 8, and 9) in accordance with manufacturer’s instructions (Luminex, Austin, TX, USA). Fluorescence was measured with a Muse® cell analyzer (Luminex, Austin, TX, USA), and data were processed by Muse 1.5 analysis software (Luminex, Austin, TX, USA).

[7] = tested on: H9c2, C6, PC-3, Raji and MCF-7 cells; test: MTT cytotoxicity, summary statements over several cell lines; assay type: cell-based; conditions: 24 h
Description: as §3, §4, §5

MCF-7 cells [8] = test: Cell cycle analysis by flow cytometry (propidium iodide); assay type: cell-based, human; conditions: 10 µM, 48 h
Description: After incubation, cells were trypsinized, harvested, washed with PBS, and fixed with ice-cold 70% ethanol in a dropwise manner prior to storage at −20 °C overnight. The cells were then washed with PBS, incubated with 200 μg/mL RNAse (PanReac, AppliChem, Darmstadt, Germany) and 20 μg/mL of propidium iodide (Sigma-Aldrich, St. Louis, MO, USA) for 30 min at 37 °C, and the DNA content was analyzed with a Muse® cell analyzer (Luminex, Austin, TX, USA). The data were processed by Muse 1.5 analysis software (Luminex, Austin, TX, USA). The proportion of cells in each phase of the cell cycle was expressed as a percentage.

MCF-7 cells [9] = test: Apoptosis profile by flow cytometry (Muse annexin V and dead cell kit); assay type: cell-based, human; conditions: 10 µM, 48 h
Description: After incubation, culture media were collected; then, cells were washed twice with cold PBS and incubated with trypsin-EDTA solution for 1 min. The cell suspension was washed twice by centrifugated at 250× g for 4 min with cold PBS and used for apoptosis detection by a Muse® annexin V and dead cell kit in accordance with manufacturer’s instructions (Luminex, Austin, TX, USA). Fluorescence was measured with a Muse® cell analyzer (Luminex, Austin, TX, USA), and data were processed by Muse 1.5 analysis software (Luminex, Austin, TX, USA). The proportion of apoptotic cells was expressed as a percentage.

SHP2 = biological target: SHP2; parameters: method as in earlier work; conditions: cell-free assay; cited from earlier work
PTP1B = biological target: PTP1B; parameters: method as in earlier work; conditions: cell-free assay; cited from earlier work
[10] = tested on: murine leukemia P388 cells; parameters: method as in PMID 21628915; conditions: read-out: IC50, P388 cell viability; cited from earlier work
[11] = tested on: Ceratobasidium cornigerum; parameters: method as in PMID 32605151; conditions: cited from earlier work
Edwardsiella tarda = tested on: Edwardsiella tarda; parameters: method as in PMID 32605151; conditions: cited from earlier work
[12] = tested on: human histiocytic lymphoma U937 cell line; parameters: method as in PMID 27936301; conditions: cited from earlier work
[13] = Homo sapiens, MCF7, 24 h, 24 h incubation, mean ± SEM, read-out: IC50, MCF-7
[14] = 24 h incubation, mean ± SEM, read-out: IC50, MCF-7

CC(O)C(O)C=CC=CC(=O)OC1C=C(CO)C(O)(CO)C2(C)CCCC(C)(C)C12 (centres unmarked) [Compound 1, asperflavinoid A]
IC50 [1]: 63.2 µM
IC50 (rat glioblastoma C6; Rattus norvegicus, C6, 24 h): 102 ± 1.7 µM
IC50 ([2]; Homo sapiens, PC-3, 24 h): 85.3 ± 2.9 µM
IC50 [3]: 84.4 µM
IC50 (human lymphoma Raji; Homo sapiens, Raji, 24 h): > 100 µM
IC50 [4, 13]: 59 ± 4.4 µM
IC50 ([5]; Rattus norvegicus, H9c2, 24 h): 84.2 ± 3.3 µM

CC(O)C(O)C=CC=CC(=O)OC1C=C(CO)C(O)(CO)C2(C)CCCC(C)(C)C12 (centres unmarked) [Compound 2, asperflavinoid B]
IC50 (rat glioblastoma C6): > 100 µM
IC50 [2]: 75.2 ± 3.8 µM
IC50 (human lymphoma Raji): > 100 µM
IC50 [4, 14]: 54.1 ± 2.4 µM
IC50 [5]: 74.4 ± 4.4 µM

CC1(C)CCC[C@@]2(C)[C@H]1[C@H](OC(=O)/C=C/C=C/C=O)C=C1CO[C@@H](O)[C@@]12O [Compound 3, asperflavinoid C]
percentage of cells exhibiting caspase activity (living and 7-AAD-labeled) (MCF-7 cells [6]): 12.3%
IC50 ([7]; range over both compounds and three cell lines): 54.3 to 88.1 µM
IC50 (rat glioblastoma C6; Rattus norvegicus, C6, 24 h): 56 ± 1.2 µM
subG0 cells (MCF-7 cells [8]; control 5.4%): 34.6%
decrease in the percentage of cells in the S phase (MCF-7 cells [8]; relative to control): 54.5%
increase of the percentage of cells in the G2/M phase (MCF-7 cells [8]; relative to control): 25.2%
reduction of the percentage of cells in the G0/G1 phase (MCF-7 cells [8]; relative to control): 30.9%
increase of the subG0 population of cells (MCF-7 cells [8]; versus control): 6.4 times
IC50 ([2]; Homo sapiens, PC-3, 24 h): 50.8 ± 1.6 µM
amount of apoptotic cells (early and late) (MCF-7 cells [9]; control 1.7%): 15.0%
amount of living cells (MCF-7 cells [9]; control 98.6%): 84.9%
IC50, SHP2 enzyme activity (SHP2): 3.0 µg/mL (≈ 7.97 µM)
IC50, PTP1B enzyme activity (PTP1B): 2.8 µg/mL (≈ 7.44 µM)
IC50 (human lymphoma Raji; Homo sapiens, Raji, 24 h): 82.3 ± 2.9 µM
decrease in MCF-7 cell viability ([4]; 10 µM, 48 h): ~50%
IC50 [4, 13]: 33.8 ± 2.2 µM
IC50 ([4]; Homo sapiens, MCF7, 48 h, 48 h incubation, concentrations up to 10 µM, read-out: IC50, MCF-7 cell viability, prolonged incubation): 10 µM
IC50 ([5]; Rattus norvegicus, H9c2, 24 h): 55.6 ± 2.6 µM

CC(O)C(O)C=CC=CC(=O)OC1C=C2COC(O)C2(O)C2(C)CCCC(C)(C)C12 (centres unmarked) [Compound 4, asperflavinoid D]
IC50 (rat glioblastoma C6; Rattus norvegicus, C6, 24 h): > 100 µM
IC50 ([2]; Homo sapiens, PC-3, 24 h): 57.4 ± 2.4 µM
IC50 (human lymphoma Raji; Homo sapiens, Raji, 24 h): 85.7 ± 6 µM
IC50 [4, 13]: 75 ± 6.2 µM
IC50 ([5]; Rattus norvegicus, H9c2, 24 h): 59.3 ± 1.7 µM

CC(O)C(O)C=CC=CC(=O)OC1C=C2COC(O)C2(O)C2(C)CCCC(C)(C)C12 (centres unmarked) [Compound 5, asperflavinoid E]
IC50 (rat glioblastoma C6): > 100 µM
IC50 [2]: 59.1 ± 0.8 µM
IC50 (human lymphoma Raji): 94.4 ± 2.3 µM
IC50 [4, 14]: 80.6 ± 3.5 µM
IC50 [5]: 63.9 ± 1.6 µM

CC1(C)CCC[C@@]2(C)[C@H]1[C@H](O)C=C1COC(=O)[C@@]12O [Compound 8, strobilactone A]
influence on the viability of the tested cells ([7]; up to a concentration of 100 µM): did not influence the viability
IC50 (rat glioblastoma C6; Rattus norvegicus, C6, 24 h): > 100 µM
IC50 ([2]; Homo sapiens, PC-3, 24 h): > 100 µM
IC50 (human lymphoma Raji; Homo sapiens, Raji, 24 h): > 100 µM
IC50 [4, 13]: > 100 µM
IC50 ([5]; Rattus norvegicus, H9c2, 24 h): > 100 µM

CC(O)C(=O)/C=C/C=C/C(=O)O[C@@H]1C=C2COC(=O)[C@]2(O)[C@@]2(C)CCCC(C)(C)[C@H]12 (some centres unmarked) [Compound 10, (6-strobilactone A) ester of (E,E)-6-carbonyl-7-hydroxy-2,4-octadienoic acid]
IC50 (rat glioblastoma C6; Rattus norvegicus, C6, 24 h): > 100 µM
IC50 ([2]; Homo sapiens, PC-3, 24 h): 57.8 ± 1.1 µM
IC50 [10]: 8.7 µM
IC50 (human lymphoma Raji; Homo sapiens, Raji, 24 h): 95.3 ± 0.8 µM
IC50 [4, 13]: 55.1 ± 1.4 µM
IC50 ([5]; Rattus norvegicus, H9c2, 24 h): 61.9 ± 0.5 µM

CC(O)C(O)/C=C/C=C/C(=O)O[C@@H]1C=C2COC(=O)[C@]2(O)[C@@]2(C)CCCC(C)(C)[C@H]12 (some centres unmarked) [Compound 11, (6-strobilactone A) esters of (E,E)-6,7-dihydroxy-2,4-octadienoic acid]
IC50 (rat glioblastoma C6; Rattus norvegicus, C6, 24 h): > 100 µM
IC50 ([2]; Homo sapiens, PC-3, 24 h): > 100 µM
IC50 (human lymphoma Raji; Homo sapiens, Raji, 24 h): 96.9 ± 1.6 µM
IC50 [4, 13]: 83.5 ± 1.7 µM
IC50 ([5]; Rattus norvegicus, H9c2, 24 h): > 100 µM

CC(O)C(O)/C=C/C=C/C(=O)O[C@@H]1C=C2COC(=O)[C@]2(O)[C@@]2(C)CCCC(C)(C)[C@H]12 (some centres unmarked) [Compound 12, (6-strobilactone A) esters of (E,E)-6,7-dihydroxy-2,4-octadienoic acid]
IC50 (rat glioblastoma C6): > 100 µM
IC50 [2]: > 100 µM
IC50 (human lymphoma Raji): 97.5 ± 0.9 µM
IC50 [4, 14]: 81.7 ± 0.9 µM
IC50 [5]: > 100 µM

C=C(C)[C@H]1[C@H](OC(C)=O)C[C@H](C)[C@@]12CC=C(C)[C@@H](OC(=O)CCCCCCCC=CCC=CCCCCC)C2 [chermebilaene A]
MIC, Ceratobasidium cornigerum [11]: 0.5 µg/mL (≈ 0.925 µM)
MIC, Edwardsiella tarda (Edwardsiella tarda): 0.25 µg/mL (≈ 0.462 µM)

aluminumneohydroxyaspergillin
IC50 [12]: 4.2 µM
